Data reported in PubChem BioAssay AID248 (DTP/NCI, 2004).
Several values for one entry are separate records, joined by “and”; a condition that tells them apart may be missing. Equal values may be shown once. Toxic doses and inconclusive results are not listed.

Test system: L1210 leukemia ip in BDF1 mice, survival T/C
Test: NCI In Vivo Anticancer Drug Screen. Data for tumor model L1210 Leukemia (intraperitoneal) in B6D2F1 (BDF1) mice
Details: endpoint: mean survival time, higher = longer survival
Procedure, shortened: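 Each compound was tested against a transplantable tumor grown in mice. The endpoint was survival, with treated animals benchmarked against vehicle controls as a simple ratio.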

[1] = dose: 100.0 mg/kg/injection, schedule: Q04DX003 (ip), vehicle: Klucel (hydroxypropylcellulose) (HPC)
[2] = dose: 100.0 mg/kg/injection, schedule: Q01DX001 (ip), vehicle: saline
[3] = dose: 100.0 mg/kg/injection, schedule: Q01DX009 (ip), vehicle: saline
[4] = dose: 200.0 mg/kg/injection, schedule: Q01DX001 (ip), vehicle: saline
[5] = dose: 200.0 mg/kg/injection, schedule: Q01DX009 (ip), vehicle: saline
[6] = dose: 400.0 mg/kg/injection, schedule: Q01DX001 (ip), vehicle: saline
[7] = dose: 200.0 mg/kg/injection, schedule: Q04DX002 (ip), vehicle: Klucel (hydroxypropylcellulose) (HPC)
[8] = dose: 400.0 mg/kg/injection, schedule: Q04DX002 (ip), vehicle: Klucel (hydroxypropylcellulose) (HPC)
[9] = dose: 200.0 mg/kg/injection, schedule: Q04DX003 (ip), vehicle: Klucel (hydroxypropylcellulose) (HPC)
[10] = dose: 400.0 mg/kg/injection, schedule: Q04DX003 (ip), vehicle: Klucel (hydroxypropylcellulose) (HPC)
[11] = dose: 100.0 mg/kg/injection, schedule: Q01DX009 (ip), vehicle: Klucel (hydroxypropylcellulose) (HPC)
[12] = dose: 200.0 mg/kg/injection, schedule: Q01DX009 (ip), vehicle: Klucel (hydroxypropylcellulose) (HPC)
[13] = dose: 400.0 mg/kg/injection, schedule: Q01DX009 (ip), vehicle: Klucel (hydroxypropylcellulose) (HPC)

SMILES: OCc1ccc(-c2ccccc2)cc1
- T/C (dose: 25.0 mg/kg/injection, schedule: Q04DX003 (ip), vehicle: Klucel (hydroxypropylcellulose) (HPC)): 108 % of control
- T/C (dose: 50.0 mg/kg/injection, schedule: Q01DX005 (ip), vehicle: saline): 94 % of control
- T/C (dose: 50.0 mg/kg/injection, schedule: Q04DX003 (ip), vehicle: Klucel (hydroxypropylcellulose) (HPC)): 103 % of control
- T/C (dose: 100.0 mg/kg/injection, schedule: Q01DX005 (ip), vehicle: saline): 112 % of control
- T/C [1]: 103 % of control
- T/C (dose: 200.0 mg/kg/injection, schedule: Q01DX005 (ip), vehicle: saline): 100 % of control
- T/C (dose: 400.0 mg/kg/injection, schedule: Q01DX005 (ip), vehicle: saline): 102 % of control

SMILES: CCCC[Si](Cl)(CCCC)CCCC
- T/C (dose: 50.0 mg/kg/injection, schedule: Q01DX009 (ip), vehicle: saline): 90 % of control
- T/C [2]: 95 % of control
- T/C [3]: 92 % of control
- T/C [4]: 108 % of control
- T/C [5]: 90 % of control
- T/C [6]: 90 % of control

SMILES: Cc1cc2c3ccccc3c3ccccc3c2nn1
- T/C [2]: 103 % of control
- T/C [4]: 101 % of control
- T/C [6]: 100 % of control

SMILES: C=CCCCCCCCCC(=O)N/N=C(/C)c1ccc(C)cc1
- T/C (dose: 100.0 mg/kg/injection, schedule: Q04DX002 (ip), vehicle: Klucel (hydroxypropylcellulose) (HPC)): 103 % of control
- T/C [7]: 118 % of control
- T/C [8]: 92 % of control

SMILES: O=NN(CCCl)C(=O)N[C@H]1CCC[C@@H](O)C1
- T/C (dose: 12.0 mg/kg/injection, schedule: Q01DX001 (ip), vehicle: saline with Tween-80): 176 % of control
- T/C (dose: 18.0 mg/kg/injection, schedule: Q01DX001 (ip), vehicle: saline with Tween-80): 306 % of control
- T/C (dose: 26.0 mg/kg/injection, schedule: Q01DX001 (ip), vehicle: saline with Tween-80): 468 % of control
- T/C (dose: 40.0 mg/kg/injection, schedule: Q01DX001 (ip), vehicle: saline with Tween-80): 468 % of control
- T/C (dose: 60.0 mg/kg/injection, schedule: Q01DX001 (ip), vehicle: saline with Tween-80): 382 % of control
- T/C (dose: 90.0 mg/kg/injection, schedule: Q01DX001 (ip), vehicle: saline with Tween-80): 86 % of control

SMILES: COc1cc(/C=N/NC(=O)c2cccnc2)cc(OC)c1OC
- T/C [3]: 102 % of control
- T/C [5]: 107 % of control
- T/C (dose: 400.0 mg/kg/injection, schedule: Q01DX009 (ip), vehicle: saline): 103 % of control

SMILES: COC1COC(OC)C(OC)C1OC (stereo unspecified)
- T/C (dose: 25.0 mg/kg/injection, schedule: Q04DX002 (ip), vehicle: saline): 87 % of control
- T/C (dose: 50.0 mg/kg/injection, schedule: Q04DX002 (ip), vehicle: saline): 104 % of control
- T/C (dose: 100.0 mg/kg/injection, schedule: Q04DX002 (ip), vehicle: saline): 90 % of control

SMILES: Cc1ccc(S(=O)(=O)OCC2C3CCC(c4ccccc43)C2COS(=O)(=O)c2ccc(C)cc2)cc1 (stereo unspecified)
- T/C [1]: 109 % of control
- T/C [9]: 105 % of control
- T/C [10]: 88 % of control

SMILES: CCCCCCCCCCCCNC(=S)NCCCCCCCCCCCC
- T/C [1]: 92 % of control
- T/C [9]: 92 % of control
- T/C [10]: 89 % of control

SMILES: NC(CSS(=O)(=O)O)=NCCCC1CCCCC1
- T/C (dose: 6.25 mg/kg/injection, schedule: Q04DX002 (ip), vehicle: saline with Tween-80): 97 % of control
- T/C (dose: 12.5 mg/kg/injection, schedule: Q04DX002 (ip), vehicle: saline with Tween-80): 101 % of control

SMILES: O=[N+]([O-])c1ccc(/C=N/c2oc(-c3ccc([N+](=O)[O-])cc3)nc2Sc2ccccc2)cc1
- T/C (dose: 25.0 mg/kg/injection, schedule: Q04DX002 (ip), vehicle: Klucel (hydroxypropylcellulose) (HPC)): 106 % of control
- T/C [7]: 96 % of control and 97 % of control and 92 % of control
- T/C [8]: 96 % of control

SMILES: Cc1[nH]c(=O)[nH]c(=O)c1[N+](=O)[O-]
- T/C [11]: 94 % of control
- T/C [1]: 102 % of control
- T/C [12]: 101 % of control
- T/C [9]: 104 % of control
- T/C [13]: 87 % of control
- T/C [10]: 102 % of control

SMILES: CCCCNC(C)(C)COC(=O)/C=C/c1ccc(OCCCC)cc1
- T/C (dose: 50.0 mg/kg/injection, schedule: Q04DX003 (ip), vehicle: saline with Tween-80): 92 % of control
- T/C [2]: 104 % of control
- T/C (dose: 100.0 mg/kg/injection, schedule: Q01DX015 (ip), vehicle: saline): 86 % of control
- T/C (dose: 100.0 mg/kg/injection, schedule: Q04DX003 (ip), vehicle: saline with Tween-80): 94 % of control
- T/C [4]: 102 % of control
- T/C (dose: 200.0 mg/kg/injection, schedule: Q01DX015 (ip), vehicle: saline): 89 % of control
- T/C (dose: 200.0 mg/kg/injection, schedule: Q04DX003 (ip), vehicle: saline with Tween-80): 105 % of control

SMILES: COc1cc(C(=O)Nc2ccc(C3=NCCN3)cc2)ccc1C(=O)Nc1ccc(C2=NCCN2)cc1
- T/C (dose: 15.0 mg/kg/injection, schedule: Q01DX Z (ip), vehicle: saline): 159 % of control and 172 % of control
- T/C (dose: 30.0 mg/kg/injection, schedule: Q01DX Z (ip), vehicle: saline): 212 % of control
- T/C (dose: 60.0 mg/kg/injection, schedule: Q01DX010 (oral), vehicle: saline): 101 % of control
- T/C (dose: 60.0 mg/kg/injection, schedule: Q01DX Z (ip), vehicle: saline): 188 % of control
- T/C (dose: 120.0 mg/kg/injection, schedule: Q01DX010 (oral), vehicle: saline): 104 % of control
- T/C (dose: 240.0 mg/kg/injection, schedule: Q01DX010 (oral), vehicle: saline): 98 % of control

SMILES: O=C(NCCCN1CC1)C(=O)Nc1ccccn1
- T/C [1]: 102 % of control
- T/C [9]: 86 % of control

SMILES: CCCCNC(=O)NC/C(Br)=C/Br
- T/C (dose: 75.0 mg/kg/injection, schedule: Q01DX009 (ip), vehicle: Klucel (hydroxypropylcellulose) (HPC)): 101 % of control
- T/C [1]: 98 % of control
- T/C (dose: 150.0 mg/kg/injection, schedule: Q01DX009 (ip), vehicle: Klucel (hydroxypropylcellulose) (HPC)): 100 % of control
- T/C [9]: 96 % of control
- T/C (dose: 300.0 mg/kg/injection, schedule: Q01DX009 (ip), vehicle: Klucel (hydroxypropylcellulose) (HPC)): 97 % of control
- T/C [10]: 93 % of control

SMILES: CB1N(c2ccccc2)B(C)N(c2ccccc2)B(C)N1c1ccccc1
- T/C [1]: 103 % of control
- T/C [9]: 93 % of control
- T/C [10]: 97 % of control

SMILES: ClCc1cccc(CCl)c1
- T/C (dose: 50.0 mg/kg/injection, schedule: Q01DX001 (ip), vehicle: saline): 95 % of control
- T/C (dose: 50.0 mg/kg/injection, schedule: Q01DX009 (ip), vehicle: saline sonified): 103 % of control
- T/C [2]: 95 % of control
- T/C (dose: 100.0 mg/kg/injection, schedule: Q01DX009 (ip), vehicle: saline sonified): 102 % of control
- T/C [4]: 97 % of control
- T/C (dose: 200.0 mg/kg/injection, schedule: Q01DX009 (ip), vehicle: saline sonified): 103 % of control

SMILES: C=C1CCC(C)(C2(c3ccccc3)OCCO2)CC1
- T/C (dose: 100.0 mg/kg/injection, schedule: Q04DX002 (ip), vehicle: saline with Tween-80): 98 % of control
- T/C (dose: 200.0 mg/kg/injection, schedule: Q04DX002 (ip), vehicle: saline with Tween-80): 95 % of control
- T/C (dose: 400.0 mg/kg/injection, schedule: Q04DX002 (ip), vehicle: saline with Tween-80): 91 % of control

SMILES: CC(=O)Nc1c(I)cc2c(c1I)Cc1cc([N+](=O)[O-])ccc1-2
- T/C (dose: 100.0 mg/kg/injection, schedule: Q01DX001 (ip), vehicle: carboxymethylcellulose (CMC)): 98 % of control
- T/C (dose: 200.0 mg/kg/injection, schedule: Q01DX001 (ip), vehicle: carboxymethylcellulose (CMC)): 104 % of control
- T/C (dose: 400.0 mg/kg/injection, schedule: Q01DX001 (ip), vehicle: carboxymethylcellulose (CMC)): 93 % of control

SMILES: Cc1cc(N(CCOS(C)(=O)=O)CCOS(C)(=O)=O)ccc1C=Nc1ccc(-c2csc(Cc3ccccc3)n2)cc1
- T/C (dose: 6.25 mg/kg/injection, schedule: Q01DX009 (ip), vehicle: Klucel (hydroxypropylcellulose) (HPC)): 105 % of control
- T/C (dose: 12.5 mg/kg/injection, schedule: Q01DX009 (ip), vehicle: Klucel (hydroxypropylcellulose) (HPC)): 110 % of control
- T/C (dose: 25.0 mg/kg/injection, schedule: Q01DX009 (ip), vehicle: Klucel (hydroxypropylcellulose) (HPC)): 122 % of control

SMILES: CCOc1ccccc1NC(=O)Nc1ccc(Cl)cc1
- T/C [11]: 97 % of control
- T/C [1]: 100 % of control
- T/C [12]: 103 % of control
- T/C [9]: 96 % of control
- T/C [13]: 101 % of control
- T/C [10]: 100 % of control

SMILES: COc1cc(/C=N/NC(=O)C(=O)N/N=C/c2cc(OC)c(OC)c(OC)c2)cc(OC)c1OC
- T/C (dose: 75.0 mg/kg/injection, schedule: Q01DX001 (ip), vehicle: other): 94 % of control
- T/C (dose: 150.0 mg/kg/injection, schedule: Q01DX001 (ip), vehicle: other): 90 % of control
- T/C (dose: 300.0 mg/kg/injection, schedule: Q01DX001 (ip), vehicle: other): 89 % of control
